According to patent publication US10357577B2, “Bacterial nitroreductase enzymes and methods relating thereto” (AUCKLAND UNISERVICES LIMITED, priority 2010, dated 2019):
Values joined by “and” are separate entries in the source; they are usually repeats but may differ in a detail not shown here. Equal values may be shown once. “Also recorded” adds a separate entry of the source.

Experiments:
[1] = tested on: nitroreductase NfsA-expressing HCT116 'activator' cells; assay: MCL (multicellular layer) bystander experiment, NfsA-dependent activation; type: cell-based, human; conditions: for bystander property (in words): MCL of NTR-expressing and parental HCT116 cells; for estimated bystander effect efficiency (BEE) / calculated bystander effect efficiency (BEE): hyperoxic (95% O2) MCLs; for estimated bystander effect efficiency (BEE): at concentrations achievable in α-MEM+10% FBS, activator fraction differs per experiment; for calculated bystander effect efficiency (BEE): HCT116-WT targets mixed with NfsA activators (activator fraction differs per experiment)
Experimental: Displacement of the Target cell survival curve to the left (T to Tc) is indicative of the presence of a cytotoxic metabolite(s) able to diffusible out of the sensitive activator (A) cell population. The prodrug concentrations for 10% survival (C10) of target cells (wild-type cells) grown without activators (T), targets in co-culture (TC) and activators (nfsA-expressing cells) in co-culture (AC) were determined by interpolation. BEE-Bystander effect efficiency calculates the drugs bystander effect: ((Log C10T−Log C10TC)/(Log C10T−Log C10AC)).
The prodrug concentrations for 10% survival (C10) of target cells (wild-type cells) grown without activators (T), and targets in co-culture (TC) and activators (NTR-expressing cells) in co-culture (AC) can be determined. The bystander effect of a test prodrug is measured by the bystander effect efficiency which can be calculated using the algorithm ((Log C10T−Log C10TC)/(Log C10T−Log C10AC)).
Millicell-CM membrane inserts (Millipore) were coated in calf-skin collagen type III (Sigma-Aldrich) to facilitate cell attachment. […] After exposure, inserts were disaggregated (0.07% trypsin, 10 min, 37° C., followed by 100 μg/ml DNAase I (Sigma-Aldrich). Cells were counted, resuspended and plated in P60 dishes to determine clonogenic survival. To discriminate clonogenic activator (NTR+) from target (NTR−) colonies cells were plated in non-selective medium (total cells) and medium containing 1 μM puromycin (activator cells). Colonies were grown in a 37° C. 5% CO2 incubator for 10 days before staining with methylene blue (2 g/liter in 50% v/v aqueous ethanol). Colonies containing >50 cells were counted as clonogenic survivors. Surviving fractions for each population was calculated as the plating efficiency for drug-treated MCLs/untreated controls. The drug concentrations for 10% survival (C10) of target cells grown without activators (T), targets in co-culture (Tc) and activators in co-culture (Ac) was determined by interpolation.

[2] = tested on: HCT116-WT (parental) 'target' cells; assay: MCL (multicellular layer) bystander experiment, target cells; type: cell-based, human
From the text: FIG. 22 illustrates NfsA-dependent activation of TH-302 in an MCL bystander experiment. It includes a representative bystander efficiency graph. TH-302 dose-response curves for hyperoxic (95% O2) multicellular layers (MCLs) of HCT116-WT (parental) ‘target’ cells in the absence (T) and presence (Tc) of nitroreductase NfsA-expressing HCT116 ‘activator’ cells (A). MCLs are composed of ‘targets only’ (T) or as intimate mixtures of 29% (±4%) NfsA activators (A) and 71% targets (Tc). Displacement of the Target cell survival curve to the left (T to Tc) is indicative of the presence of a cytotoxic metabolite(s) able to diffusible out of the sensitive activator (A) cell population. The prodrug concentrations for 10% survival (C10) of target cells (wild-type cells) grown without activators (T), targets in co-culture (TC) and activators (nfsA-expressing cells) in co-culture (AC) were determined by interpolation. BEE-Bystander effect efficiency calculates the drugs bystander effect: ((Log C10T−Log C10TC)/(Log C10T−Log C10AC)). The calculated bystander effect efficiency is 43.4%.
Bystander effects can be quantified according to methods described in Wilson et al, 2002, Cancer Res. 62:1425-1432, by employing a 3D multicellular layer (MCL) composed of a minority (1%) of NTR-expressing ‘activator’ cells, mixed with a majority (99%) of parental (wild-type) ‘target’ cells. The prodrug concentrations for 10% survival (C10) of target cells (wild-type cells) grown without activators (T), and targets in co-culture (TC) and activators (NTR-expressing cells) in co-culture (AC) can be determined. The bystander effect of a test prodrug is measured by the bystander effect efficiency which can be calculated using the algorithm ((Log C10T−Log C10TC)/(Log C10T−Log C10AC)). […]
Millicell-CM membrane inserts (Millipore) were coated in calf-skin collagen type III (Sigma-Aldrich) to facilitate cell attachment. […] Surviving fractions for each population was calculated as the plating efficiency for drug-treated MCLs/untreated controls. […]

[3] = tested on: HCT116 cells expressing E. coli NfsA; type: cell-based, human; conditions: low cell density proliferation assay
Experimental: (§1) FIGS. 10 (B) and 10 (C) illustrates the results of evaluation of 2-nitroimidazole clinical imaging candidates with E. coli and non-E. coli NTRs. Stably-expressing cells were treated with varying concentration of 2-nitroimidazole prodrugs diluted in αMEM+5% FCS+P/S. Cells were exposed to prodrug for 18 hrs, washed and left to regrow for 5 days. IC50 was determined as the concentration of prodrug required to inhibit cell growth by 50% of untreated controls. IC50 values are mean for ≥2 independent experiments. WT:NTR ratio-ratio of IC50 means from WT cells versus NTR-expressing cell lines.
as §1, with “FIG. 21” for “FIGS. 10 (B) and 10 (C)”, “antiproliferative activity (IC50 value)” for “the results”, “prodrug” for “evaluation of 2-nitroimidazole clinical imaging”, “nitroreductases.” for “NTRs.”, “prodrug” for “2-nitroimidazole prodrugs”, “ratio-interexperimental ratio” for “ratio-ratio”
(§2) Isolated NTR gene sequences were subject to PCR and introduced in the bicistronic plasmid F579 via Gateway cloning (Invitrogen) as described by Prosser et al. (2010, Biochem Pharmacol, 79, 678-687). Stably transfected cell lines were created by transfection of the relevant plasmid using FuGENE 6 Transfection Reagent (Roche). Transfected cell populations were maintained by passage in puromycin
(§3) Cells were passaged in alpha-Minimal Essential Media, (αMEM; Gibco) supplemented with 5% FBS, (GIBCO NZ) without antibiotics. Cell were passaged for <3 months from frozen stocks and confirmed Mycoplasma free (PCR-ELISA; Roche Diagnostics). Cells were aliquoted into the 96-well plate (100 μL/well) and cells were left to attach (≥4 hrs). […] Plates were read on an ELx 808 Absorbance Microplate Reader (Bio-Tek Instruments). Absorbance was measured at 490 nm and 450 nm (final absorbance 490-450). […]

[4] = tested on: HCT116 cells expressing E. coli NfsB; assay: Monolayer antiproliferative (IC50) assay, NTR-expressing HCT116; type: cell-based, human; conditions: low cell density proliferation assay
Experimental: as §1
as §1, with “FIG. 21” for “FIGS. 10 (B) and 10 (C)”, “antiproliferative activity (IC50 value)” for “the results”, “prodrug” for “evaluation of 2-nitroimidazole clinical imaging”, “nitroreductases.” for “NTRs.”, “prodrug” for “2-nitroimidazole prodrugs”, “ratio-interexperimental ratio” for “ratio-ratio”
as §2, §3

NfsB(Ec) = target: T1, NfsB(Ec) (Escherichia coli, UniProt P38489); assay: Growth Inhibition assay, NTR over-expressing E. coli SOS-R2; type: cell-based; conditions: elevated substrate concentrations (400 μM F-MISO, 600 μM HX4)
T1 construct: expressed in transfected cells; host or cells: E. coli SOS-R2 (endogenous nfsA, nfsB, nemA and azoR deleted) carrying pUCX::ntr
Experimental: FIG. 34 (B) illustrates the metabolism of F-MISO by members of the 58 NTR over-expression library as measured by Growth Inhibition assay as described for FIG. 34A except that cells were challenged with 400 μM F-MISO.
FIG. 35 (B) illustrates the metabolism of HX4 by members of the 58 NTR over-expression library as measured by Growth Inhibition assay as described for FIG. 35A except that cells were challenged with 600 μM HX4.
Individual microtiter plate wells containing 200 μl LB+amp, 0.4% glucose were inoculated with SOS-R2 pUCX::ntr strains and incubated overnight at 30° C., 200 rpm. Ten μl of the overnight culture were used to inoculate 190 μl of fresh assay media (LB+amp, 0.05 mM IPTG, 0.2% glucose) and incubated at 30° C., 200 rpm for 3 h. The 200 μl culture was split into 100 μl duplicates which were supplemented with either 100 μl challenge media (assay media+250 uM EF5+2% DMSO) or 100 μl control media (assay media+2% DMSO). Initial OD600 readings were recorded and then plates incubated at 30° C., 200 rpm for 4 h after which final OD600 readings were taken and used to calculate strains respective growth inhibition in EF5 presence.

T1 sequence (P38489 whole entry): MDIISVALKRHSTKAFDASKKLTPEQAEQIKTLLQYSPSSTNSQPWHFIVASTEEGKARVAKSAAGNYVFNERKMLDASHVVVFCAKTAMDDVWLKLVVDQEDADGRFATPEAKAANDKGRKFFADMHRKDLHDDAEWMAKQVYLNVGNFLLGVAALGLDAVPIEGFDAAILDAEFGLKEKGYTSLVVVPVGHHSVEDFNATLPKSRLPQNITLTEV

Row | Compound | bystander property (in words) [1] | estimated bystander effect efficiency (BEE) [1] [%] | other results
1 | O=C(Cn1ccnc1[N+](=O)[O-])NCCO [Etanidazole, N-(2-hydroxyethyl)-2-(2-nitro-1H-imidazol-1-yl)acetamide] | zero bystander property | 0 | 
2 | O=C1CN(/N=C/c2ccc([N+](=O)[O-])o2)C(=O)N1 [Nitrofurantoin, (E)-1-(((5-nitrofuran-2-yl)methylene)amino)imidazolidine-2,4-dione] | zero bystander property |  | calculated bystander effect efficiency (BEE) [1]: 0%
3 | Cn1c(COP(=O)(NCCBr)NCCBr)cnc1[N+](=O)[O-] [TH-302, N,N′-bis(2-bromoethyl)-(1-methyl-2-nitro-1H-imidazol-5-yl)methyl phosphorodiamidic acid ester] |  |  | calculated bystander effect efficiency (BEE) [1]: 43.4% and 43%; sterilisation of the nfsA-expressing cells in the MCL model ([1]; incubation with 90 nM TH-302): Greater than 90%; fold less sensitive, NfsA negative cells versus nfsA-expressing cells ([2]; MCL model): 210 fold; C10 (concentration for 10% survival) of NfsA negative cells in co-culture ([2]; MCL, targets in co-culture with activators): 1.86 µM; C10 (concentration for 10% survival) of NfsA negative cells ([2]; MCL, targets without activators): 18.9 µM
4 | COCC(O)Cn1ccnc1[N+](=O)[O-] (stereo not shown) [Misonidazole, 1-methoxy-3-(2-nitro-1H-imidazol-1-yl)propan-2-ol] | zero bystander property | 0 | 
5 | CCS(=O)(=O)CCn1c([N+](=O)[O-])cnc1C [Tinidazole, 1-(2-(ethylsulfonyl)ethyl)-2-methyl-5-nitro-1H-imidazole] | lack any measurable bystander effect; also recorded: zero bystander property | 0 | 
6 | CN(CCO)C(=O)c1cc([N+](=O)[O-])cc([N+](=O)[O-])c1N(CCBr)CCBr [SN31609, 2-(bis(2-bromoethyl)amino)-N-(2-hydroxyethyl)-N-methyl-3,5-dinitrobenzamide] |  |  | prodrug activation (in words) [3]: significant activation; prodrug activation (in words) [4]: significant activation
7 | O=[N+]([O-])c1nccn1Cc1cn(C(CO)CF)nn1 (stereo not shown) [HX4, 3-fluoro-2-(4-((2-nitro-1H-imidazol-1-yl)methyl)-1H-1,2,3-triazol-1-yl)propan-1-ol] |  |  | activity with 2-NI substrate (in words) (NfsB(Ec)): substantial activity
8 | O=[N+]([O-])c1nccn1CC(O)CNCCBr (stereo not shown) [RB6145] | lack any measurable bystander effect |  | 
9 | O=[N+]([O-])c1nccn1CC(O)CN1CC1 (stereo not shown) [RSU-1069, 1-(aziridin-1-yl)-3-(2-nitro-1H-imidazol-1-yl)propan-2-ol] | lack any measurable bystander effect |  | 
10 | CS(=O)(=O)OCCN(CCBr)c1c(C(=O)NCCO)cc([N+](=O)[O-])cc1[N+](=O)[O-] [PR-104A, 2-((2-bromoethyl)(2-((2-hydroxyethyl)carbamoyl)-4,6-dinitrophenyl)amino)ethyl methanesulfonate] | marked bystander property | 89 | prodrug activation (in words) [3]: significant activation; prodrug activation (in words) [4]: significant activation
